Results published in patent US8334403B1, “C-lysine conjugates as pH-controlled, light-activated reagents for double stranded DNA cleavage and associated methods” (Florida State University Research Foundation, Inc., priority 2005, dated 2012).

Assays:
[1] = Fluorometric (emission) determination of pKa; type: physicochemical; conditions: emission; α-amino group (4, 6), ε-amino group (7)
Procedure: (§1) General information. ^1H, ^13C and ^19F NMR were collected on a Varian Gemini 300 MHz NMR spectrometer and a Bruker 300 MHz NMR spectrometer. Mass spectrometry data was collected on a Jeol JMS-600H. UV spectra were recorded on a Shimadzu UV-2100. Fluorescence spectra were obtained with SPEX FluoMax spectrofluorimeter using right-angle geometry. pH was adjusted with AB 15 plus pH meter (Accument) after standardization at 25° C. All buffers were prepared and pH-adjusted at room temperature (25° C.). Plasmid DNA Photocleavage. pBR322 plasmid DNA (4,361 b/p; from BioLabs Inc., 1 μg/μL solution in 10 mM Tris-HCl (pH 8.0), and 1 mM EDTA buffer) was diluted to a concentration of 0.01 μg/μL. The solution containing cleavage agent, DNA (30 μM/bp) in 20 mM sodium phosphate buffer was incubated for 1 hour at 30° C. Samples were placed on ice at a distance of 20 cm from 200 W Hg—Xe lamp (Spectra-Physics, Laser & Photonics Oriel Instruments with long pass filter with 324 nm cut-off wavelength). Electrophoretic Analysis. The gel electrophoresis was carried out in 1×TBE buffer at 80 V using Miligel FisherBiotech Horizontal Electrophoresis System. All gels were run on 1% agarose slab gels. Before loading, the DNA samples were mixed with 0.33 volume of tracking dye containing bromophenol blue (0.25%) and glycerol (30%) in water. After staining in ethidium bromide solution (2 μg/ml) for 1 hour, the gel was washed with water and pictures were taken with Polaroid 3000ISO type 667 film. The relative quantities of the supercoiled, nicked, and linear DNA were calculated by integrating the “area” of each spot by the image analyzer software Total/Lab (Nonlinear Dynamics Ltd., UK). The amount of supercoiled DNA was multiplied by factor of 1.4 to account for reduced ethidium bromide intercalation into supercoiled DNA. pH titration by ^1H-NMR. pH* of compound 8 (3 mM) solution in D2O containing 0.05 wt % 3-(trimethylsilyl)propionic-2,2,3,3-d4 acid, sodium salt (TSP-d4) was adjusted with 10 wt % DCI and NaOD in D2O at 25° C. under argon purged condition. Spectrometric determinations of pKa. pH of 10 μM of compound solution in H2O was adjusted with 10, 100 mM HCl (aq) and NaOH (aq) solution under argon purged condition. Excitation wavelength was 330 nm and polymethacrylate fluorimeter cuvettes were used. Absorbance and fluorescence titration with DNA. The concentrations of calf thymus DNA stock solution was determined spectophotometrically using the following molar absorptovity values: 1.32×10^4 M^−1 cm^−1 (per base pair) at 260 nm. All experiments were done in 20 mM sodium phosphate buffer at 25° C. and polymethacrylate fluorimeter cuvettes were used. The same amount of DNA was added to both sample and reference cuvettes during UV/Vis titration. Determination of excited state lifetimes. The concentration of compound solution was 10 μM in 20 mM sodium phosphate buffer. The photoluminescence lifetime measurements were conducted by exciting the samples with the output of a Nd:VO—4 (Spectra-Physics Vanguard, 2 W, 532 nm, 76 MHz, 10 ps) pumped R6G dye laser (Coherent 702-1). The output of the dye laser (600 nm, Rhodamine 6G) was cavity dumped at 1.9 MHz and frequency doubled using a BBO crystal to excite the fluorophore (the excitation wavelength used was 290 nm). Samples were excited with <1 mW power and the emission was collected at right angles onto a Chromex S3 500 is 0.5 m imaging monochromator with a 50 g/mm grating and 0.5 nm resolution. […]

[2] = UV-absorption titration determination of pKa; type: physicochemical; conditions: absorption; α-amino group (4, 6), ε-amino group (7)
Procedure: as §1

[3] = test system: pBR322 plasmid DNA; assay: Plasmid relaxation assay: DNA photocleavage of supercoiled plasmid under UV irradiation; type: biochemical; conditions: pH 6, 15 μM, 10 min of UV irradiation
Procedure: General information. ^1H, ^13C and ^19F NMR were collected on a Varian Gemini 300 MHz NMR spectrometer and a Bruker 300 MHz NMR spectrometer. Mass spectrometry data was collected on a Jeol JMS-600H. UV spectra were recorded on a Shimadzu UV-2100. Fluorescence spectra were obtained with SPEX FluoMax spectrofluorimeter using right-angle geometry. pH was adjusted with AB 15 plus pH meter (Accument) after standardization at 25° C. All buffers were prepared and pH-adjusted at room temperature (25° C.). Plasmid DNA Photocleavage. pBR322 plasmid DNA (4,361 b/p; from BioLabs Inc., 1 μg/μL solution in 10 mM Tris-HCl (pH 8.0), and 1 mM EDTA buffer) was diluted to a concentration of 0.01 μg/μL. The solution containing cleavage agent, DNA (30 μM/bp) in 20 mM sodium phosphate buffer was incubated for 1 hour at 30° C. Samples were placed on ice at a distance of 20 cm from 200 W Hg—Xe lamp (Spectra-Physics, Laser & Photonics Oriel Instruments with long pass filter with 324 nm cut-off wavelength). Electrophoretic Analysis. The gel electrophoresis was carried out in 1×TBE buffer at 80 V using Miligel FisherBiotech Horizontal Electrophoresis System. All gels were run on 1% agarose slab gels. Before loading, the DNA samples were mixed with 0.33 volume of tracking dye containing bromophenol blue (0.25%) and glycerol (30%) in water. After staining in ethidium bromide solution (2 μg/ml) for 1 hour, the gel was washed with water and pictures were taken with Polaroid 3000ISO type 667 film. The relative quantities of the supercoiled, nicked, and linear DNA were calculated by integrating the “area” of each spot by the image analyzer software Total/Lab (Nonlinear Dynamics Ltd., UK). The amount of supercoiled DNA was multiplied by factor of 1.4 to account for reduced ethidium bromide intercalation into supercoiled DNA. pH titration by ^1H-NMR. pH* of compound 8 (3 mM) solution in D2O containing 0.05 wt % 3-(trimethylsilyl)propionic-2,2,3,3-d4 acid, sodium salt (TSP-d4) was adjusted with 10 wt % DCI and NaOD in D2O at 25° C. under argon purged condition. Spectrometric determinations of pKa. pH of 10 μM of compound solution in H2O was adjusted with 10, 100 mM HCl (aq) and NaOH (aq) solution under argon purged condition. Excitation wavelength was 330 nm and polymethacrylate fluorimeter cuvettes were used. Absorbance and fluorescence titration with DNA. The concentrations of calf thymus DNA stock solution was determined spectophotometrically using the following molar absorptovity values: 1.32×10^4 M^−1 cm^−1 (per base pair) at 260 nm. All experiments were done in 20 mM sodium phosphate buffer at 25° C. and polymethacrylate fluorimeter cuvettes were used. The same amount of DNA was added to both sample and reference cuvettes during UV/Vis titration. Determination of excited state lifetimes. The concentration of compound solution was 10 μM in 20 mM sodium phosphate buffer. The photoluminescence lifetime measurements were conducted by exciting the samples with the output of a Nd:VO—4 (Spectra-Physics Vanguard, 2 W, 532 nm, 76 MHz, 10 ps) pumped R6G dye laser (Coherent 702-1). The output of the dye laser (600 nm, Rhodamine 6G) was cavity dumped at 1.9 MHz and frequency doubled using a BBO crystal to excite the fluorophore (the excitation wavelength used was 290 nm). Samples were excited with <1 mW power and the emission was collected at right angles onto a Chromex S3 500 is 0.5 m imaging monochromator with a 50 g/mm grating and 0.5 nm resolution. Output of the monochromator is focused into a Hamamatsu C5680 streak camera operating at a 20 ns window for the fluorophore. Intensity analysis was carried out by integrating the spectral profile in time on the streak camera. Lifetime analysis over 6-7 lifetimes of the fluorophore was conducted by binning the photoluminescence intensity collected on the streak camera over a 20 nm spectral window at the centroid value of the emission of the fluorophore. Ethidium bromide displacement. […]

[4] = pH (pD) titration by 1H-NMR in D2O; type: physicochemical; conditions: uncorrected
Procedure: General information. ^1H, ^13C and ^19F NMR were collected on a Varian Gemini 300 MHz NMR spectrometer and a Bruker 300 MHz NMR spectrometer. Mass spectrometry data was collected on a Jeol JMS-600H. UV spectra were recorded on a Shimadzu UV-2100. Fluorescence spectra were obtained with SPEX FluoMax spectrofluorimeter using right-angle geometry. pH was adjusted with AB 15 plus pH meter (Accument) after standardization at 25° C. All buffers were prepared and pH-adjusted at room temperature (25° C.). Plasmid DNA Photocleavage. pBR322 plasmid DNA (4,361 b/p; from BioLabs Inc., 1 μg/μL solution in 10 mM Tris-HCl (pH 8.0), and 1 mM EDTA buffer) was diluted to a concentration of 0.01 μg/μL. The solution containing cleavage agent, DNA (30 μM/bp) in 20 mM sodium phosphate buffer was incubated for 1 hour at 30° C. […] The relative quantities of the supercoiled, nicked, and linear DNA were calculated by integrating the “area” of each spot by the image analyzer software Total/Lab (Nonlinear Dynamics Ltd., UK). […] Absorbance and fluorescence titration with DNA. The concentrations of calf thymus DNA stock solution was determined spectophotometrically using the following molar absorptovity values: 1.32×10^4 M^−1 cm^−1 (per base pair) at 260 nm. […]

[5] = test system: three human clear cell renal cell carcinoma (RCC) cell lines (UMRC3, UMRC6, 786-O); assay: RCC cell proliferation assay, three cell lines together; type: cell-based; conditions: 10 μM
Procedure: FIG. 23 provides the results of cell proliferation assays using three different RCC cell lines: (a) UMRC3, (b) UMRC6 and (c) 786-O, and compounds I-5; RCC cells were resuspended in media and treated with UV radiation (350 nm) for 10 minutes with and without indicated compounds; control cells were exposed to the indicated compound 1-5 at final concentration of 10 μM; cell numbers determined after 72 hours as described in the SI Section;
The ability of compounds 1-5 to inhibit cell proliferation in three human clear cell renal cell carcinoma (RCC) cell lines was tested in the dark and under photoactivation (FIG. 23). No difference was detected in the control experiments between cells not exposed to UV versus those that were exposed to UV at 350 nm for 10 minutes in any of the three RCC cell lines tested (FIG. 23 A, B & C; first two columns).

C[C@H](N)C(=O)Nc1ccc(C#Cc2c(F)c(F)nc(F)c2F)cc1.Cl [Compound 6, (S)-2-Amino-propanoic acid [4-(2,3,5,6-tetrafluoro-pyridin-4-ylethynyl)-phenyl]-amide hydrochloride]
pKa1 [1]: 7.6
pKa1 [2]: 7.4
ds-cleavage [3]: do not produce any ds-cleavage

Cl.Cl.NCCCC[C@H](N)C(=O)Nc1ccccc1 [Compound 8, (S)-2,6-Diaminohexanoic acid phenyl-amide dihydrochloride]
pKa1 (α-amino group) [4]: 7.56
pKa2 (ε-amino group) [4]: 10.75

Cl.Cl.NCCCC[C@H](N)C(=O)Nc1ccc(C#Cc2ccccc2)cc1 [Compound 5, (S)-2,6-Diaminohexanoic acid [4-(phenylethynyl)-phenyl]-amide dihydrochloride]
cytotoxicity in the dark [5]: considerably less cytotoxic in the dark
